Measurements published in ChEMBL document CHEMBL5303573, “Mapping human microbiome drug metabolism by gut bacteria and their genes” (Nature, 2019).

Assays:
Format in all cases: ADME
Parameters in all cases: dose 2 uM
Conditions in all cases: 2 µM
Acylhydrolase = biological target: T1, Acylhydrolase (Bacteroides thetaiotaomicron, UniProt Q8AA96); experiment: (§1) The drug is tested on Bacteroides thetaiotaomicron strain: VPI-5482 for biotransformation. The drug concentrations were measured before and after a 12-h incubation by liquid-chromatography-coupled mass spectrometry (LC–MS)
T1 sequence (Q8AA96 whole entry): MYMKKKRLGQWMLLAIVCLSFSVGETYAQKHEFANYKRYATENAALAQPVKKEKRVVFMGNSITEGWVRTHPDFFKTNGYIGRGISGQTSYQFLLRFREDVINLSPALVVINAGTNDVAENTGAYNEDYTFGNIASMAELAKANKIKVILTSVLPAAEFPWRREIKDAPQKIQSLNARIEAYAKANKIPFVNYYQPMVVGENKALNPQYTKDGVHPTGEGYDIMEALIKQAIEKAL

Acyltransferase = biological target: T2, Acyltransferase (Bacteroides thetaiotaomicron, UniProt Q8A575); experiment: as §1
T2 sequence (Q8A575 whole entry): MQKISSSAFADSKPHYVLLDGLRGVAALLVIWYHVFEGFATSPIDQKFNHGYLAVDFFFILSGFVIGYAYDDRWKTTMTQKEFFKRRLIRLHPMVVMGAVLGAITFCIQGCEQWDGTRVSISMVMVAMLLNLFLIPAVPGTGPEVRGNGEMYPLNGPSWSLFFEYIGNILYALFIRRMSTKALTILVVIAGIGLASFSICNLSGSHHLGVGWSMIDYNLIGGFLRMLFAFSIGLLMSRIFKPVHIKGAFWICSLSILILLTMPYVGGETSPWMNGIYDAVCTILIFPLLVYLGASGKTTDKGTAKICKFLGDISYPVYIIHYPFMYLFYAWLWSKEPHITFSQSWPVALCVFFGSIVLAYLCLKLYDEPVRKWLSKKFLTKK

General stress protein = General stress protein (Bacteroides thetaiotaomicron, UniProt Q8A7U5); experiment: as §1
Sequence of General stress protein (Q8A7U5 1-138, change not shown): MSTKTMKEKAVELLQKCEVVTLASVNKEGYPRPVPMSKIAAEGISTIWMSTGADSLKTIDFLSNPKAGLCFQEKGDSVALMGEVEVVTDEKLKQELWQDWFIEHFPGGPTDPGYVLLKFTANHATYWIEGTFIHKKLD

[1] = biological target: T3, Lipolytic enzyme, G-D-S-L family (Bacteroides thetaiotaomicron, UniProt Q8A0C5); experiment: as §1
T3 sequence (Q8A0C5 whole entry): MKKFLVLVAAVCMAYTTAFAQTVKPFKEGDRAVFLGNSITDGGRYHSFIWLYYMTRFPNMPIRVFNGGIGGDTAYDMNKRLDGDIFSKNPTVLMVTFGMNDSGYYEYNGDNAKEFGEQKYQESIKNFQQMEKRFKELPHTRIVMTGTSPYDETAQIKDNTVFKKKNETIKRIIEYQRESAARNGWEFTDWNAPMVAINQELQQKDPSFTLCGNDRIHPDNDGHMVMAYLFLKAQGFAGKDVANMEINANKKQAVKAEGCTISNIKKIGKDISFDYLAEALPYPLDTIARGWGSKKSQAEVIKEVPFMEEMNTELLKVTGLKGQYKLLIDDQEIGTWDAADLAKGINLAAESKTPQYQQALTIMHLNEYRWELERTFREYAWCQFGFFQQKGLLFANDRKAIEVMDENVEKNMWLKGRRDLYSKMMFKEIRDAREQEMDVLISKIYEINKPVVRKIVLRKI

Regulatory protein = biological target: T4, Regulatory protein (Bacteroides thetaiotaomicron, UniProt Q8A576); experiment: as §1
T4 sequence (Q8A576 whole entry): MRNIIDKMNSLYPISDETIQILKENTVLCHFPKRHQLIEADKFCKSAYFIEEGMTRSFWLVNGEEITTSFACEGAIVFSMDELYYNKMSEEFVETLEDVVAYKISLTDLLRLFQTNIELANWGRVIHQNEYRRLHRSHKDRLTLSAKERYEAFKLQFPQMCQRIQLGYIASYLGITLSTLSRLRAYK

[2] = biological target: T5, Sialic acid-specific 9-O-acetylesterase (Bacteroides thetaiotaomicron, UniProt Q8A0D0); experiment: as §1
T5 sequence (Q8A0D0 whole entry): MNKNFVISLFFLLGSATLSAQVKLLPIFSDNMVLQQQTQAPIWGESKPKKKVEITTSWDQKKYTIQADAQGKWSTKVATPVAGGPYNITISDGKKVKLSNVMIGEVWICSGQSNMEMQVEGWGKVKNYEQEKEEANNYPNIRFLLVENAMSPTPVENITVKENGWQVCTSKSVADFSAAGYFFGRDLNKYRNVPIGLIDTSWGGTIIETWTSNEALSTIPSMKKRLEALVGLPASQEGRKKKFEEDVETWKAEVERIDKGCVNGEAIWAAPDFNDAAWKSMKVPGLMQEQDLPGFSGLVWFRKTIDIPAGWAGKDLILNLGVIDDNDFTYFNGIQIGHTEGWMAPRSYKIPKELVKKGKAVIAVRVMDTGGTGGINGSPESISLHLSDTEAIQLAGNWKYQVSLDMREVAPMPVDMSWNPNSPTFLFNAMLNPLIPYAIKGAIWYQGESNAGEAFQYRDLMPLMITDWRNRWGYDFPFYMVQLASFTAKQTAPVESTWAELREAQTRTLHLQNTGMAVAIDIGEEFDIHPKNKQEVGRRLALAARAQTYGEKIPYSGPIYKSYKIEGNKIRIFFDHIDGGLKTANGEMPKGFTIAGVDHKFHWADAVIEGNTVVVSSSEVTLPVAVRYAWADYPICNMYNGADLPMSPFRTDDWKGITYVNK

[3] = biological target: T6, Sialic acid-specific acetylesterase (Bacteroides thetaiotaomicron, UniProt Q8A331); experiment: as §1
T6 sequence (Q8A331 whole entry): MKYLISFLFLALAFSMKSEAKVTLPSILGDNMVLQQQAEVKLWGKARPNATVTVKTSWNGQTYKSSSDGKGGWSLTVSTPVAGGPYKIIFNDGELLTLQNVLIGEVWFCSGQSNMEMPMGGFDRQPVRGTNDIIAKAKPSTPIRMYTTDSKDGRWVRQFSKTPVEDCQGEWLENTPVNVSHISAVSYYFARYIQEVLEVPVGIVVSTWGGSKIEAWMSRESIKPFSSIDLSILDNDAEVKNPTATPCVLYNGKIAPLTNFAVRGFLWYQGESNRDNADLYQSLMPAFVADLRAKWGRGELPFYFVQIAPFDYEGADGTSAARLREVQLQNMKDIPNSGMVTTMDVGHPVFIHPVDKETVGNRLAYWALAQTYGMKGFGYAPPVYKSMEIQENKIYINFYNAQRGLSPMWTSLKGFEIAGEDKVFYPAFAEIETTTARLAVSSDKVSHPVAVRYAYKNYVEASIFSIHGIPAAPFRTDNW

Xylanase = biological target: T7, Xylanase (Bacteroides thetaiotaomicron, UniProt Q8A8H5); experiment: as §1
T7 sequence (Q8A8H5 whole entry): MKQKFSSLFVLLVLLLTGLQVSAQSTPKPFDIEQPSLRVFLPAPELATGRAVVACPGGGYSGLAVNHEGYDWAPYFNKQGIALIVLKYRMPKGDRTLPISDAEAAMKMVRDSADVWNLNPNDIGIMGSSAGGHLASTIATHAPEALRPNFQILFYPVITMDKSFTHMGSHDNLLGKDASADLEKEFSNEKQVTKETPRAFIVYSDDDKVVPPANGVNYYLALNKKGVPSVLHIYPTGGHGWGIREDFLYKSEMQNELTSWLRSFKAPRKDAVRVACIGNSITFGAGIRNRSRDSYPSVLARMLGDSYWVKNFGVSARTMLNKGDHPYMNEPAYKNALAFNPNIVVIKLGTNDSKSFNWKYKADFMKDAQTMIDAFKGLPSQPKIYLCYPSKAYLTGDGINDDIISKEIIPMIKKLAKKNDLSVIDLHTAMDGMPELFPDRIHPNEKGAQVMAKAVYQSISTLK

Row | SMILES | Bacterial Biotransformation (Acylhydrolase) | Bacterial Biotransformation (Acyltransferase) | Bacterial Biotransformation (General stress protein) | Bacterial Biotransformation [1] | Bacterial Biotransformation (Regulatory protein) | Bacterial Biotransformation [2] | Bacterial Biotransformation [3] | Bacterial Biotransformation (Xylanase)
1 | C#C[C@]1(OC(C)=O)CC[C@H]2[C@@H]3CCC4=CC(=O)CC[C@@H]4[C@H]3CC[C@@]21C [NORETHINDRONE ACETATE] | Compound NOT metabolized | Compound NOT metabolized | Compound NOT metabolized | Compound NOT metabolized | Compound NOT metabolized | Compound NOT metabolized | Compound NOT metabolized | Compound NOT metabolized
2 | CC(=O)OCC(CCn1cnc2cnc(N)nc21)COC(C)=O [FAMCICLOVIR] | Compound metabolized | Compound NOT metabolized | Compound NOT metabolized | Compound metabolized | Compound NOT metabolized | Compound metabolized | Compound metabolized | Compound NOT metabolized
3 | C#C[C@]1(O)CC[C@H]2[C@@H]3CCC4=CC(=O)CC[C@@H]4[C@H]3CC[C@@]21CC [LEVONORGESTREL] | Compound NOT metabolized | Compound NOT metabolized | Compound NOT metabolized | Compound NOT metabolized | Compound NOT metabolized | Compound NOT metabolized | Compound NOT metabolized | Compound NOT metabolized
4 | COc1ccc([C@@H]2Sc3ccccc3N(CCN(C)C)C(=O)[C@@H]2OC(C)=O)cc1 [DILTIAZEM] | Compound NOT metabolized | Compound NOT metabolized | Compound NOT metabolized | Compound metabolized | Compound NOT metabolized | Compound NOT metabolized | Compound NOT metabolized | Compound NOT metabolized
5 | CC(=O)OCC(=O)[C@@]1(OC(C)=O)[C@@H](C)C[C@H]2[C@@H]3C[C@H](F)C4=CC(=O)C=C[C@]4(C)[C@@]3(F)[C@@H](O)C[C@@]21C [DIFLORASONE DIACETATE] | Compound metabolized | Compound NOT metabolized | Compound NOT metabolized | Compound metabolized | Compound NOT metabolized |  |  | Compound NOT metabolized
